Values quoted from earlier work as cited in publication PMC3889329 (Diabetes Therapy, 2013).

System: healthy subjects
Conditions: cited from earlier work

| Compound | Maximal UGE (200–800 mg qd, healthy subjects) [g/day] | Maximum UGE (multiple doses of 5–600 mg, healthy volunteers) |
| --- | --- | --- |
| Cc1ccc([C@@H]2O[C@H](CO)[C@@H](O)[C@H](O)[C@H]2O)cc1Cc1ccc(-c2ccc(F)cc2)s1 [Canagliflozin] | 70 | – |
| OC[C@H]1O[C@@H](c2ccc(F)c(Cc3cc4ccccc4s3)c2)[C@H](O)[C@@H](O)[C@@H]1O [Ipragliflozin] | – | approximately 59 g/day |
